From the supplement of paper PMC10307832

Key:
Experiment in all cases: relative viability (nuclei count vs DMSO), 5 days (fraction); higher = more cells survive
[1] = compound: O=C(C[C@H]1NCCC[C@@H]1O)Cn1cnc2cc(Br)c(Cl)cc2c1=O (racemic) [Halofuginone] + O=C(c1cc(Cc2n[nH]c(=O)c3ccccc23)ccc1F)N1CCN(C(=O)C2CC2)CC1 [Olaparib] (partner 8 µM)
How it was run: (§1)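 Lung cancer cell lines were seeded in 1536-well plates and dosed by pin tool the next day, with either a single drug or a fixed anchor-drug dose combined with five library-drug doses (not always all listed) spaced in √10 steps. Five days later, one step fixed the cells and stained their nuclei (final 0.05% Triton X-100, 1% formaldehyde, 1 ug/ml Hoechst), and nuclei were counted on 4× images. Relative viability is the nuclei count in treated wells divided by the count in vehicle wells, and each value is the median of duplicate plates.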

[2] = compound: O=C(C[C@H]1NCCC[C@@H]1O)Cn1cnc2cc(Br)c(Cl)cc2c1=O (racemic) [Halofuginone] + N=C(N)NC(=N)NCCc1ccccc1 [Phenformin] (partner 250 µM)
How it was run: as §1

[3] = compound: Nc1ncn([C@H]2C[C@H](O)[C@@H](CO)O2)c(=O)n1 [Decitabine] + CC(=O)Nc1cccc(-n2c(=O)n(C3CC3)c(=O)c3c(Nc4ccc(I)cc4F)n(C)c(=O)c(C)c32)c1 [Trametinib] (partner 0.02 µM)
How it was run: as §1

[4] = compound: Nc1ncn([C@H]2C[C@H](O)[C@@H](CO)O2)c(=O)n1 [Decitabine] + COc1cccc2cc(-c3nc([C@H]4CC[C@H](C(=O)O)CC4)n4ncnc(N)c34)[nH]c12 [OSI-027] (partner 0.5 µM)
How it was run: as §1

Cell Line	relative viability ([1]; first compound 0.001 µM)	relative viability ([1]; first compound 0.003162 µM)	relative viability ([1]; first compound 0.01 µM)	relative viability ([1]; first compound 0.03162 µM)	relative viability ([1]; first compound 0.1 µM)	relative viability ([2]; first compound 0.001 µM)	relative viability ([2]; first compound 0.003162 µM)	relative viability ([2]; first compound 0.01 µM)	relative viability ([2]; first compound 0.03162 µM)	relative viability ([2]; first compound 0.1 µM)	relative viability ([3]; first compound 0.04 µM)	relative viability ([3]; first compound 0.1265 µM)	relative viability ([3]; first compound 0.4 µM)	relative viability ([3]; first compound 1.265 µM)	relative viability ([3]; first compound 4 µM)	relative viability ([4]; first compound 0.04 µM)	relative viability ([4]; first compound 0.1265 µM)	relative viability ([4]; first compound 0.4 µM)	relative viability ([4]; first compound 1.265 µM)	relative viability ([4]; first compound 4 µM)
NCI-H1734	0.632	0.621	0.6	0.584	0.22	0.369	0.436	0.427	0.408	0.369	0.595	0.575	0.404	0.313	0.333	0.506	0.554	0.578	0.368	0.266
NCI-H1755	0.853	0.941	0.881	0.833	0.723	0.636	0.629	0.617	0.665	0.615	0.653	0.743	0.688	0.564	0.488	0.642	0.669	0.534	0.571	0.52
NCI-H1792	0.529	0.424	0.355	0.42	0.0661	0.233	0.29	0.256	0.223	0.184	0.432	0.359	0.477	0.257	0.193	0.74	0.727	0.712	0.539	0.505
NCI-H1793	0.988	0.852	0.814	0.902	0.294	0.438	0.388	0.429	0.328	0.332	0.399	0.407	0.463	0.339	0.35	0.204	0.277	0.289	0.277	0.233
NCI-H1915	0.225	0.247	0.241	0.26	0.237	0.361	0.386	0.366	0.339	0.355	0.233	0.223	0.218	0.192	0.184	0.447	0.429	0.29	0.312	0.263
NCI-H1944	0.416	0.407	0.395	0.405	0.402	0.179	0.225	0.208	0.218	0.172	0.435	0.441	0.369	0.254	0.256	0.372	0.424	0.353	0.329	0.354
NCI-H1975	0.875	0.868	0.721	0.429	0.14	0.403	0.397	0.422	0.356	0.365	0.284	0.272	0.219	0.233	0.219	0.516	0.378	0.32	0.277	0.256
NCI-H1993	0.949	0.699	1.04	1.02	0.623	0.436	0.554	0.448	0.535	0.577	0.491	0.431	0.394	0.432	0.511	0.593	0.599	0.519	0.514	0.548
NCI-H2009	0.744	0.664	0.66	0.706	0.541	0.485	0.52	0.473	0.449	0.271	0.227	0.255	0.229	0.181	0.252	0.518	0.437	0.336	0.296	0.25
NCI-H2023	0.509	0.565	0.405	0.239	0.0514	0.441	0.418	0.383	0.395	0.2	0.473	0.464	0.296	0.196	0.197	0.275	0.29	0.26	0.159	0.15
NCI-H2085	0.795	0.816	0.728	0.736	0.684	0.685	0.703	0.686	0.705	0.574	0.514	0.451	0.394	0.364	0.308	0.47	0.587	0.472	0.376	0.365
NCI-H2087	0.616	0.685	0.629	0.617	0.277	0.487	0.535	0.424	0.44	0.362	0.175	0.179	0.189	0.179	0.163	0.376	0.348	0.317	0.257	0.28
NCI-H2126	0.893	0.863	0.882	0.901	0.916	0.538	0.56	0.511	0.512	0.488	0.576	0.545	0.474	0.422	0.44	0.659	0.67	0.489	0.465	0.44
NCI-H2170	0.64	0.593	0.589	0.605	0.551	0.412	0.416	0.411	0.392	0.434	0.651	0.639	0.587	0.41	0.282	0.626	0.55	0.454	0.44	0.385
NCI-H2228	0.669	0.627	0.461	0.184	0.124	0.32	0.332	0.307	0.338	0.172	0.396	0.394	0.358	0.198	0.204	0.418	0.431	0.205	0.103	0.207
NCI-H2342	0.644	0.431	0.413	0.431	0.427	0.719	0.566	0.561	0.688	0.547	0.959	1.03	0.88	0.606	0.72	0.544	0.583	0.565	0.595	0.599
